In data set [1] the test system is lambsquarter (Chenopodium album). Kind of data set: Postemergence herbicidal activity. Type of data set: in vivo. To be noted: Chenopodium album, post-emergence, 336 h, post-emergent, 140 g ai/ha, after 14 days; read-out: % Control CHEAL. In a few lines:
(§1)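 Plants grown 7-21 days in greenhouse (about 15 h photoperiod, 23-29° C day, 22-28° C night) to first or second true leaf stage. Compounds in acetone/water/isopropanol/DMSO carrier with crop oil concentrate and Triton X-155 sprayed overhead at 187 L/ha; controls received solvent blank. Plants sub-irrigated afterwards; dose responses analysed by probit analysis.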

The subject of data set [2] is redroot pigweed (Amaranthus retroflexus). The data set can be described thus: Postemergence herbicidal activity. It counts as in vivo. Conditions: Amaranthus retroflexus, post-emergence, 336 h, post-emergent, 140 g ai/ha, after 14 days; read-out: % Control AMARE. The method, boiled down: as §1
Data set [3] concerns velvetleaf (Abutilon theophrasti). Kind of data set: Postemergence herbicidal activity. Type of data set: in vivo. To be noted: Abutilon theophrasti, post-emergence, 336 h, post-emergent, 140 g ai/ha, after 14 days; read-out: % Control ABUTH. The method, boiled down:
as §1

In another data set the test system is Cyperus difformis. The data set can be described thus: Herbicidal activity in transplanted paddy rice. Type of data set: in vivo. Conditions: paddy water application, after 3 weeks; for pest or weed control at 70 g/ha: Cyperus difformis, 504 h, 70 g ai/ha, read-out: % Control CYPDI. The protocol: (§2) Weed seeds or nutlets of the desired test plant species were planted in puddled soil (mud) prepared by mixing a non-sterilized mineral soil (28 percent silt, 18 percent clay, and 54 percent sand, with a pH of about 7.3 to 7.8 and an organic matter content of about 1.0 percent) and water at a ratio of 100 kg of soil to 19 L of water. The prepared mud was dispensed in 250 mL aliquots into 480 mL non-perforated plastic pots with a surface area of 91.6 square centimeters leaving a headspace of 3 centimeters in each pot. […] Seedlings at the second or third leaf stage of growth were transplanted into 650 mL of mud contained in 960 mL non-perforated plastic pots with a surface area of 91.6 square centimeters 4 days prior to herbicide application. The paddy was created by filling the 3 centimeter headspace of the pots with water. When required to ensure good germination and healthy plants, a fungicide treatment and/or other chemical or physical treatment was applied. The plants were grown for 4-14 days in a greenhouse with an approximate 14 hour photoperiod which was maintained at about 29° C. during the day and 26° C. during the night. Nutrients were added as Osmocote (17:6:10, N:P:K+minor nutrients) at 2 g per pot. Water was added on a regular basis to maintain the paddy flood, and supplemental lighting was provided with overhead metal halide 1000-Watt lamps as necessary. The plants were employed for testing when they reached the second or third true leaf stage. A weighed amount, determined by the highest rate to be tested, of each test compound was placed in a 120 mL glass vial and was dissolved in 20 mL of acetone to obtain concentrated stock solutions. […] Application rates of ½×, ¼×, ⅛× and 1/16× of the high rate were obtained by injecting an appropriate amount of the stock solution into the aqueous layer of the paddy. Control plants were treated in the same manner with the solvent blank. The treated plants and control plants were placed in a greenhouse as described above and water was added as needed to maintain a paddy flood.

In the next data set the test system is Scirpus juncoides. Kind of data set: Herbicidal activity in transplanted paddy rice. It counts as in vivo. Conditions: paddy water application, after 3 weeks; for pest or weed control at 70 g/ha: Schoenoplectiella juncoides, 504 h, 70 g ai/ha, read-out: % Control SCPJU. The protocol:
as §2

Data set [4] relates to rice (Orysa sativa var. Japonica). Kind of data set: Herbicidal activity in transplanted paddy rice. It counts as in vivo. Conditions: transplant rice (crop), paddy water application, after 3 weeks; for pest or weed control at 70 g/ha: Oryza sativa, 504 h, 70 g ai/ha. The protocol:
as §2

The subject of another data set is Monochoria vaginalis. Kind of data set: Herbicidal activity in transplanted paddy rice. To be noted: paddy water application, after 3 weeks; for pest or weed control at 70 g/ha: Pontederia vaginalis, 504 h, 70 g ai/ha, read-out: % Control MOOVA. It counts as in vivo. The protocol:
as §2

A further data set relates to Echinochloa crus-galli. Kind of data set: Herbicidal activity in transplanted paddy rice. It counts as in vivo. Conditions: paddy water application, after 3 weeks; for pest or weed control at 70 g/ha: Echinochloa crus-galli, 504 h, 70 g ai/ha, read-out: % Control ECHCG. The protocol: as §2
For a further data set, the system named is Papaver rhoeas. The data set can be described thus: Postemergence herbicidal activity in cereal crops. It counts as in vivo. To be noted: Papaver rhoeas, post-emergence, 480 h, post-emergent, after 20-22 days, read-out: % Control PAPRH. How it is done:
(§3) When required to ensure good germination and healthy plants, a fungicide treatment and/or other chemical or physical treatment was applied. The plants were grown for 7-36 days in a greenhouse with an approximate 14 hour photoperiod which was maintained at about 18° C. during the day and 17° C. during the night. Nutrients and water were added on a regular basis and supplemental lighting was provided with overhead metal halide 1000-Watt lamps as necessary. The plants were employed for testing when they reached the second or third true leaf stage. […] The concentrated stock solutions obtained were diluted with 16 mL of an aqueous mixture containing acetone, water, isopropyl alcohol, DMSO, Agri-dex crop oil concentrate, and Triton® X-77 surfactant in a 64.7:26.0:6.7:2.0:0.7:0.01 v/v ratio to obtain spray solutions containing the highest application rates. […] Compound requirements are based upon a 12 mL application volume at a rate of 187 L/ha. Formulated compounds were applied to the plant material with an overhead Mandel track sprayer equipped with a […] nozzles calibrated to deliver 187 L/ha over an application area of 0.503 square meters at a spray height of 18 inches (43 cm) above average plant canopy height. Control plants were sprayed in the same manner with the blank. The treated plants and control plants were placed in a greenhouse as described above and watered by sub-irrigation to prevent wash-off of the test compounds.

For data set [5], the system named is wheat (Triticum aestivum). The data set can be described thus: Postemergence herbicidal activity in cereal crops. It counts as in vivo. To be noted: Triticum aestivum, post-emergence, 480 h, crop, post-emergent, after 20-22 days, read-out: % Control TRZAS. The protocol:
as §3

A further data set relates to barley (Hordeum vulare). Kind of data set: Postemergence herbicidal activity in cereal crops. It counts as in vivo. To be noted: Hordeum, post-emergence, 480 h, crop, post-emergent, after 20-22 days, read-out: % Control HORVS. How it is done:
as §3

Another data set concerns Veronica persica. The data set can be described thus: Postemergence herbicidal activity in cereal crops. It counts as in vivo. To be noted: Veronica persica, post-emergence, 480 h, post-emergent, after 20-22 days, read-out: % Control VERPE. The protocol: as §3
The test system of a further data set is Galium aparine. The data set can be described thus: Postemergence herbicidal activity in cereal crops. Conditions: Galium aparine, post-emergence, 480 h, post-emergent, after 20-22 days, read-out: % Control GALAP. Type of data set: in vivo. The protocol: as §3
The subject of the next data set is Lamium purpureum. Kind of data set: Postemergence herbicidal activity in cereal crops. Type of data set: in vivo. Conditions: Lamium purpureum, post-emergence, 480 h, post-emergent, after 20-22 days, read-out: % Control LAMPU. How it is done:
as §3

The test system of data set [6] is lambsquarter (Chenopodium album). Kind of data set: Preemergence herbicidal activity. It counts as in vivo. To be noted: Chenopodium album, pre-emergence, 480 h; pre-emergent, 140 g ai/ha, after 20-22 days; read-out: % Control CHEAL. In a few lines:
(§4)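 Seeds sown in 70:30 loam (pH about 8.1, about 1.5% organic matter) and sand mix, then sprayed preemergence at 187 L/ha with a track sprayer; controls received solvent blank. Pots kept in greenhouse, about 15 h photoperiod, about 23-29° C. day and 22-28° C. night, top-irrigated.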

For data set [7], the system named is redroot pigweed (Amaranthus retroflexus). Kind of data set: Preemergence herbicidal activity. Type of data set: in vivo. Conditions: Amaranthus retroflexus, pre-emergence, 480 h; pre-emergent, 140 g ai/ha, after 20-22 days; read-out: % Control AMARE. The method, boiled down: as §4
Data set [8] relates to velvetleaf (Abutilon theophrasti). The data set can be described thus: Preemergence herbicidal activity. Type of data set: in vivo. Conditions: Abutilon theophrasti, pre-emergence, 480 h; pre-emergent, 140 g ai/ha, after 20-22 days; read-out: % Control ABUTH. In a few lines:
as §4

These results are taken from US20070179060A1, “6-(Poly-substituted aryl)-4-aminopicolinates and their use as herbicides” (priority 2006, published 2007).

As to `COC(=O)c1nc(-c2ccc(Cl)c(CF)c2F)cc(N)c1Cl` [Compound 5, 4-Amino-3-chloro-6-(4-chloro-2-fluoro-3-fluoromethylphenyl)pyridine-2-carboxylic acid methyl ester], the pest or weed control at 140 g/ha in data set [1] is 90%; in data set [2] it was 35%; in data set [3] it was 100%. Besides, the pest or weed control at 70 g/ha was 100% with Cyperus difformis; 90% in the data set on Scirpus juncoides; 0% in data set [4]; 100% with Monochoria vaginalis; 20% in the data set with Echinochloa crus-galli.

`CCN(CC)CC.COc1c(Cl)ccc(-c2cc(N)c(Cl)c(C(=O)O)n2)c1Cl` [Compound 136, 4-Amino-3-chloro-6-(2,4 dichloro-3-methoxyphenyl)pyridine-2-carboxylic acid, triethyl amine salt]: in the data set on Cyperus difformis (35 g ai/ha), the “% Control CYPDI” value is 100%. The “% Control SCPJU” value in the data set on Scirpus juncoides (35 g ai/ha) is reported as 80%. Moreover, the “% Control ORYSA” value in data set [4] (35 g ai/ha) amounted to 0%. Further, the “% Control MOOVA” value in the data set with Monochoria vaginalis (35 g ai/ha) is given as 100%. In the data set on Echinochloa crus-galli (35 g ai/ha), the “% Control ECHCG” value is recorded as 15%.

Consider `CCCCOC(=O)c1nc(-c2ccc(Cl)c(OC)c2Cl)cc(N)c1Cl` [Compound 89, 4-Amino-3-chloro-6-(2,4-dichloro-3-methoxyphenyl)pyridine-2-carboxylic acid, butyl ester], for which the pest or weed control at 70 g/ha was determined as 100% with Cyperus difformis; 90% in the data set on Scirpus juncoides; 0% in data set [4]; 100% with Monochoria vaginalis; 85% in the data set with Echinochloa crus-galli.

On to `CCOC(=O)c1nc(-c2ccc(Cl)c(OC)c2F)cc(N)c1Cl` [Compound 86, 4-amino-3-chloro-6-(4-chloro-2-fluoro-3-methoxyphenyl)-pyridine-2-carboxylic acid, ethyl ester], for which the pest or weed control at 140 g/ha in data set [1], in data set [2] and in data set [3] was 100% each time. Moreover, the pest or weed control at 70 g/ha in the data set on Cyperus difformis stood at 100%; in the data set on Scirpus juncoides, 95%; in [4], 10%; in the data set with Monochoria vaginalis it was 100%; in the data set on Echinochloa crus-galli, 25%.

Regarding `CCCCOC(=O)c1nc(-c2c(F)cc(Cl)c(OC)c2F)cc(N)c1Cl` [Compound 88, 4-Amino-3-chloro-6-(4-chloro-2,6-difluoro-3-methoxyphenyl)pyridine-2-carboxylic acid, butyl ester], the pest or weed control at 70 g/ha in the data set on Cyperus difformis turned out to be 100%; in the data set on Scirpus juncoides, 100%; in [4], 10%; with Monochoria vaginalis, 100%; in the data set on Echinochloa crus-galli it was 100%.

`COC(=O)c1nc(-c2ccc(Cl)c(N(C)C)c2F)cc(N)c1Cl` [Compound 16, 4-Amino-3-chloro-6-(4-chloro-3-dimethylamino-2-fluorophenyl)pyridine-2-carboxylic acid, methyl ester] displayed a melting point of 104 to 106 °C. Moreover, in data set [1], the pest or weed control at 140 g/ha was found to be 100%. The pest or weed control at 140 g/ha in data set [2] worked out at 100%. In data set [3], the pest or weed control at 140 g/ha was determined as 100%. For the same compound, the pest or weed control at 17.5 g/ha in the data set with Papaver rhoeas (17.5 g ai/ha) stood at 95%. Moreover, in data set [5] (17.5 g ai/ha), the plant injury at 17.5 g/ha was 10%. Besides, the pest or weed control at 17.5 g/ha in the data set on barley (Hordeum vulare) (17.5 g ai/ha) was 10%. For the same compound, the pest or weed control at 17.5 g/ha with Veronica persica (17.5 g ai/ha) came to 95%. Moreover, the pest or weed control at 17.5 g/ha in the data set with Galium aparine (17.5 g ai/ha) was 95%. Moreover, in the data set with Lamium purpureum (17.5 g ai/ha), the pest or weed control at 17.5 g/ha was determined as 100%. Moreover, the pest or weed control at 140 g/ha in data set [6] amounted to 100%. The pest or weed control at 140 g/ha in data set [7] is 100%. In data set [8], the pest or weed control at 140 g/ha was 90%.

As for `COC(=O)c1nc(-c2ccc(Cl)c(OC)c2F)c(F)c(N)c1Cl` [Compound 14, 4-Amino-3-chloro-5-fluoro-6-(4-chloro-2-fluoro-3-methoxyphenyl)pyridine-2-carboxylic acid methyl ester], the melting point is 172 to 173 °C. Besides, the pest or weed control at 140 g/ha in data set [1] is 100%. Moreover, the pest or weed control at 140 g/ha in data set [2] was 100%. Also, the pest or weed control at 140 g/ha in data set [3] is 100%. The pest or weed control at 35 g/ha in the data set with Papaver rhoeas (35 g ai/ha) stood at 95%. Also, the plant injury at 35 g/ha in data set [5] (35 g ai/ha) worked out at 0%. For the same compound, the pest or weed control at 35 g/ha in the data set with barley (Hordeum vulare) (35 g ai/ha) amounted to 0%. Moreover, the pest or weed control at 35 g/ha in the data set with Veronica persica (35 g ai/ha) came out at 65%. In addition, the pest or weed control at 35 g/ha in the data set on Galium aparine (35 g ai/ha) was found to be 90%. The pest or weed control at 35 g/ha in the data set on Lamium purpureum (35 g ai/ha) is 95%. The pest or weed control at 140 g/ha in data set [6] was 100%. In data set [7], the pest or weed control at 140 g/ha amounted to 100%. For the same compound, the pest or weed control at 140 g/ha in [8] was determined as 100%.
